{
  "source": "patent US12209180B2",
  "about": "“Bis-octahydrophenanthrene carboxamide derivatives and protein conjugates thereof for use as LXR agonists” (REGENERON PHARMACEUTICALS, INC., priority 2018, dated 2025)",
  "molecules": {"B1": {"name": "H1H21234N-N297Q-LP1 (conjugate)", "VH": "QVQLQESGPGLVKPSETLSLTCTVTGGSISRNYWSWIRQPPGKGLEWIGYIYYSGSIDYNPSLKSRVTISVDTSKNQFSLKLSSMTAADTAVYYCARDRWNWKYGMDVWGQGTTVIVSS", "VL": "EIVLTQSPGTLSLSPGERATLSCRASQTVRNNYLAWYHQKPGQAPRLLIYGASSRATGIPDRFSGSGSGTDFTLTISRLEPEDFTVYYCHQYGNSPWTFGQGTKMEIKR"}},
  "key": {"Solubility in water": {"assay": "Solubility in water", "format": "physicochemical"}, "LXR [1]": {"system": "T1, LXR", "T1 construct": "EC50 (M); S/N; other: differentiate", "assay": "Cell-based LXR luciferase reporter assay, LXR agonists (Example 16a)", "parameters": "species or system human", "conditions": "Table 5a; for EC50: differentiated THP-1/LXR-Luc cells, 48 h; for S/N: highest RLU on dose response curve / RLU in untreated wells", "procedure": "LXR agonists described herein were evaluated in a cell-based LXR responsive luciferase reporter assay. To generate the assay cell line, an LXR regulated luciferase reporter gene [Cignal Lenti LXR Reporter (luc) kit (Qiagen, Cat #CLS-001L)] was transduced into THP1 cells and the cells were selected for two weeks in puromycin. The lentivirus expresses the firefly luciferase gene under the control of a basal promoter and tandem repeats of the LXR transcriptional response element. The resulting cell line is referred to as THP1/LXR-Luc cells. For the assay, THP1/LXR-Luc cells were seeded onto 96-well plates at 40,000 cells/well in media containing RPMI supplemented with 10% FBS and penicillin/streptomycin and were then differentiated with 200 nM Phorbol Myristate Acetate (PMA) for 3 days. The media was subsequently removed and replaced with 80 μL of fresh media without PMA. Three-fold serial dilutions of free payloads were prepared in 100% DMSO, transferred to fresh growth media, and 20 μL were added to the cells at a final constant DMSO concentration of 0.2% and free payloads at final concentrations ranging from 100 nM to 0.015 nM. The last well in the plate served as blank control containing only the media and 0.2% DMSO (untreated well) and was plotted as a continuation of the 3-fold serial dilution. Forty-eight hours later, luciferase activity was determined after the addition of One-Glo™ reagent (Promega, Cat #E6130) to each well. Relative light units (RLUs) were measured on an Envision luminometer (PerkinElmer) and EC50 values were determined using a four-parameter logistic equation over a 10-point dose response curve (GraphPad Prism). The signal to noise (S/N) was determined by taking the ratio of the highest RLU on the dose response curve to the RLU in the untreated wells."}, "THP-1": {"system": "THP-1", "assay": "Activation of cholesterol efflux (BODIPY-cholesterol) in differentiated THP1 macrophages", "format": "cell-based, human", "procedure": "The ability of anti-MSR1-LXR agonist ADCs to activate cholesterol efflux in a human macrophage cell line (THP-1; ATTC Catalog #TIB-202) were assessed using a fluorescent cholesterol analog. […] Cells were differentiated into macrophages by treatment with 100 nM Phorbol-12 myristate 13-acetate (Sigma, Catalog #P8139), which was added to the media (described above), for 96 hours. […] Percentage of BODIPY-cholesterol efflux was calculated using the following formula: [fluorescence in acceptor media/(fluorescence in acceptor media+fluorescence in cell lysate)]×100."}, "[2]": {"assay": "Stability of isolated compound in buffer", "format": "physicochemical", "conditions": "HCl salt; even under basic buffer (pH>7)", "procedure": "To a solution compound 141 (0.30 g, 0.33 mmol) in acetonitrile (5 mL) was added a solution of HCl in dioxane (4 N, 3 mL). The reaction mixture was stirred at room temperature for 3 hours until Boc was totally removed according to LCMS. The volatiles were removed, and the residue was purified by reversed phase flash chromatography (0-100% acetonitrile in water) to give compound 142 as HCl salt (0.19 g, 73% yield), as a white solid, which was not stable, even under basic buffer (pH>7). ESI m/z: 717.2 (M+H)^+."}, "LXR [3]": {"system": "T1, LXR", "assay": "THP1/LXR-Luc reporter assay, anti-MSR1 LXR agonist ADCs (Example 17)", "format": "cell-based, human", "conditions": "differentiated THP-1/LXR-Luc cells, Table 6"}, "[4]": {"conditions": "Homo sapiens, THP-1, after 24 hours, read-out: cholesterol efflux EC50"}, "[5]": {"conditions": "Homo sapiens, differentiated THP-1 macrophages, 24-hour treatment, Table 8, read-out: Cholesterol Efflux activation EC50"}},
  "note": "Read-outs that look alike come from different tables or passages of the source.",
  "data": [
    {"molecule": "CC(C)[C@H](NC(=O)[C@@H](CCCCNC(=O)COC1CCCCCc2c1nnn2CC1OC2OC3C(CO)OC(OC4C(CO)OC(OC5C(CO)OC(OC6C(CO)OC(OC7C(CO)OC(OC1C(O)C2O)C(O)C7O)C(O)C6O)C(O)C5O)C(O)C4O)C(O)C3O)NC(=O)CCOCCOCCOCCOCCNC(=O)CCC(=O)N1Cc2ccccc2C#Cc2ccccc21)C(=O)N[C@@H](CCCNC(N)=O)C(=O)Nc1ccc2c(c1)[C@@]1(C)CCC[C@](C)(C(=O)NC(=O)[C@@]3(C)CCC[C@]4(C)c5cc(N)ccc5CC[C@@H]34)[C@@H]1CC2", "note": "(stereo partly drawn) [LP2]", "values": [
      {"measurement": "solubility", "setting": "Solubility in water", "result": "< 100", "unit": "µg/mL"}
    ]},
    {"molecule": "C[C@]1(C(=O)NC(=O)[C@@]2(C)CCC[C@]3(C)c4cc(O)ccc4CC[C@@H]23)CCC[C@]2(C)c3cc(N)ccc3CC[C@@H]12", "note": "[P1, (1S,4aS,10aR)-N-[(1S,4aS,10aR)-6-Amino-1,4a-dimethyl-1,2,3,4,4a,9,10,10a-octahydrophenanthrene-1-carbonyl]-6-hydroxy-1,4a-dimethyl-1,2,3,4,4a,9,10,10a-octahydrophenanthrene-1-carboxamide]", "values": [
      {"measurement": "EC50", "setting": "LXR [1]", "result": 0.191, "unit": "nM"},
      {"measurement": "S/N", "setting": "LXR [1]", "result": 11.9},
      {"measurement": "EC50", "setting": "THP-1; [4]", "result": 0.02, "unit": "nM"},
      {"measurement": "EC50", "setting": "THP-1; [5]", "result": 0.02, "unit": "nM"}
    ]},
    {"molecule": "C[C@]1(C(=O)NC(=O)[C@@]2(C)CCC[C@]3(C)c4cc(N)ccc4CC[C@@H]23)CCC[C@]2(C)c3cc(N)ccc3CC[C@@H]12", "note": "[P2, (1S,4aS,10aR)-6-Amino-N-((1S,4aS,10aR)-6-amino-1,4a-dimethyl-1,2,3,4,4a,9,10,10a-octahydrophenanthrene-1-carbonyl)-1,4a-dimethyl-1,2,3,4,4a,9,10,10a-octahydrophenanthrene-1-carboxamide]", "values": [
      {"measurement": "EC50", "setting": "LXR [1]", "result": 0.45, "unit": "nM"},
      {"measurement": "S/N", "setting": "LXR [1]", "result": 13.1},
      {"measurement": "EC50", "setting": "THP-1; [4]", "result": 0.014, "unit": "nM"},
      {"measurement": "EC50", "setting": "THP-1; [5]", "result": 0.014, "unit": "nM"}
    ]},
    {"molecule": "C[C@H](N)C(=O)Nc1ccc2c(c1)[C@@]1(C)CCC[C@](C)(C(=O)NC(=O)[C@@]3(C)CCC[C@]4(C)c5cc(N)ccc5CC[C@@H]34)[C@@H]1CC2", "note": "[P13, (1S,4aS,10aR)-N-[(1S,4aS,10aR)-6-amino-1,4a-dimethyl-1,2,3,4,4a,9,10,10a-octahydrophenanthrene-1-carbonyl]-6-[(2S)-2-aminopropanamido]-1,4a-dimethyl-1,2,3,4,4a,9,10,10a-octahydrophenanthrene-1-carboxamide]", "values": [
      {"measurement": "EC50", "setting": "LXR [1]", "result": 0.0788, "unit": "nM"},
      {"measurement": "S/N", "setting": "LXR [1]", "result": 11.9}
    ]},
    {"molecule": "C[C@]1(C(=O)NC(=O)[C@@]2(C)CCC[C@]3(C)c4cc(NC(=O)CO)ccc4CC[C@@H]23)CCC[C@]2(C)c3cc(N)ccc3CC[C@@H]12", "note": "[P14, (1S,4aS,10aR)-N-[(1S,4aS,10aR)-6-(2-hydroxyacetamido)-1,4a-dimethyl-1,2,3,4,4a,9,10,10a-octahydrophenanthrene-1-carbonyl]-6-amino-1,4a-dimethyl-1,2,3,4,4a,9,10,10a-octahydrophenanthrene-1-carboxamide]", "values": [
      {"measurement": "EC50", "setting": "LXR [1]", "result": 0.152, "unit": "nM"},
      {"measurement": "S/N", "setting": "LXR [1]", "result": 10.8}
    ]},
    {"molecule": "CC(C)(C)OC(=O)Nc1ccc2c(c1)[C@@]1(C)CCC[C@](C)(C(=O)NC(=O)[C@@]3(C)CCC[C@]4(C)c5cc(O)ccc5CC[C@@H]34)[C@@H]1CC2", "note": "[P15, tert-Butyl N-[(4bS,8S,8aR)-8-({[(1S,4aS,10aR)-6-hydroxy-1,4a-dimethyl-1,2,3,4,4a,9,10,10a-octahydrophenanthren-1-yl]formamido}carbonyl)-4b,8-dimethyl-4b,5,6,7,8,8a,9,10-octahydrophenanthren-3-yl]carbamate]", "values": [
      {"measurement": "EC50", "setting": "LXR [1]", "result": 72.9, "unit": "nM"},
      {"measurement": "S/N", "setting": "LXR [1]", "result": 8.8}
    ]},
    {"molecule": "C[C@H](NC(=O)[C@@H](N)CCC(=O)O)C(=O)Nc1ccc2c(c1)[C@@]1(C)CCC[C@](C)(C(=O)NC(=O)[C@@]3(C)CCC[C@]4(C)c5cc(O)ccc5CC[C@@H]34)[C@@H]1CC2", "note": "[P16, (4S)-4-Amino-4-{[(1S)-1-{[(4bS,8S,8aR)-8-({[(1S,4aS,10aR)-6-hydroxy-1,4a-dimethyl-1,2,3,4,4a,9,10,10a-octahydrophenanthren-1-yl]formamido}carbonyl)-4b,8-dimethyl-4b,5,6,7,8,8a,9,10-octahydrophenanthren-3-yl]carbamoyl}ethyl]carbamoyl}butanoic acid]", "values": [
      {"measurement": "EC50", "setting": "LXR [1]", "result": 0.508, "unit": "nM"},
      {"measurement": "S/N", "setting": "LXR [1]", "result": 11.5}
    ]},
    {"molecule": "C[C@]1(C(=O)NC(=O)[C@@]2(C)CCC[C@]3(C)c4cc(NC(=O)CO)ccc4CC[C@@H]23)CCC[C@]2(C)c3cc(O)ccc3CC[C@@H]12", "note": "[P17, (1S,4aS,10aR)-N-[(1S,4aS,10aR)-6-(2-hydroxyacetamido)-1,4a-dimethyl-1,2,3,4,4a,9,10,10a-octahydrophenanthrene-1-carbonyl]-6-hydroxy-1,4a-dimethyl-1,2,3,4,4a,9,10,10a-octahydrophenanthrene-1-carboxamide]", "values": [
      {"measurement": "EC50", "setting": "LXR [1]", "result": 1.03, "unit": "nM"},
      {"measurement": "S/N", "setting": "LXR [1]", "result": 12.5}
    ]},
    {"molecule": "C[C@]1(C(=O)NC(=O)[C@@]2(C)CCC[C@]3(C)c4cc(NC(=O)COCNC(=O)CN)ccc4CC[C@@H]23)CCC[C@]2(C)c3cc(O)ccc3CC[C@@H]12", "note": "[P18, (1S,4aS,10aR)-N-[(1S,4aS,10aR)-6-{2-[(2-aminoacetamido)methoxy]acetamido}-1,4a-dimethyl-1,2,3,4,4a,9,10,10a-octahydrophenanthrene-1-carbonyl]-6-hydroxy-1,4a-dimethyl-1,2,3,4,4a,9,10,10a-octahydrophenanthrene-1-carboxamide]", "values": [
      {"measurement": "EC50", "setting": "LXR [1]", "result": 2.78, "unit": "nM"},
      {"measurement": "S/N", "setting": "LXR [1]", "result": 11.5}
    ]},
    {"molecule": "C[C@]1(C(=O)NC(=O)[C@@]2(C)CCC[C@]3(C)c4cc(N)c(O)cc4CC[C@@H]23)CCC[C@]2(C)c3cc(O)ccc3CC[C@@H]12", "note": "[P19, (1S,4aS,10aR)-N-[(1S,4aS,10aR)-6-amino-7-hydroxy-1,4a-dimethyl-1,2,3,4,4a,9,10,10a-octahydrophenanthrene-1-carbonyl]-6-hydroxy-1,4a-dimethyl-1,2,3,4,4a,9,10,10a-octahydrophenanthrene-1-carboxamide]", "values": [
      {"measurement": "EC50", "setting": "LXR [1]", "result": 0.564, "unit": "nM"},
      {"measurement": "S/N", "setting": "LXR [1]", "result": 11.4}
    ]},
    {"molecule": "CNCCN(CCOCCO)C(=O)Oc1ccc2c(c1)[C@@]1(C)CCC[C@](C)(C(=O)NC(=O)[C@@]3(C)CCC[C@]4(C)c5cc(N)ccc5CC[C@@H]34)[C@@H]1CC2.Cl.Cl", "note": "[compound 142, (4bS,8S,8aR)-8-((1S,4aS,10aR)-6-Amino-1,4a-dimethyl-1,2,3,4,4a,9,10,10a-octahydrophenanthrene-1-carbonylcarbamoyl)-4b,8-dimethyl-4b,5,6,7,8,8a,9,10-octahydrophenanthren-3-yl 2-(2-hydroxyethoxy)ethyl(2-(methylamino)ethyl)carbamate]", "values": [
      {"measurement": "stability", "setting": "[2]", "result": "not stable"}
    ]},
    {"molecule": "B1", "values": [
      {"measurement": "EC50", "setting": "LXR [3]", "result": 0.738, "unit": "nM"},
      {"measurement": "S/N", "setting": "LXR [3]", "result": 11.8},
      {"measurement": "EC50", "setting": "THP-1; after 24 hours, read-out: cholesterol efflux EC50", "result": 0.098, "unit": "nM"}
    ]}
  ]
}
